What was measured:
[1] = Locomotion test in naïve macaques (no viral injection); format: in vivo; details: naive macaques, n=3, not significant
rM3Ds = molecular target: T1, rM3Ds (Rattus norvegicus, UniProt P08483, A177S/A238G/A489L/DEL261-437/DEL441-478/E258S/I253V/I483M/INS256[…]/K178L/K182A/K255R/K484R/K486H/L173F/L482A/M480V/R171S/R176Q/R179M/S481M/T174R/T181R/T257A/Y148C); assay: Chemogenetic manipulation of BG direct pathway in mice with rM3Ds: rotations, nigral c-Fos; format: in vivo; parameters: 2A-EYFP (C); expressed in transfected cells; host or cells: neurons (striatal D1-MSNs) of mice or cynomolgus macaques, transduced in vivo by nigral AAV8R12-G88P7-rM3Ds-2A-EYFP; details: for contraversive rotations (FIG. 7A), mean±SEM: AAV8R12-G88P7-rM3Ds-2A-EYFP nigral, n=8; for rotation behavior (FIG. 7C), mean±SEM: control vector AAV8R12-G88P7-EYFP, n=5, no effect
T1 sequence (P08483 with tags, fused parts or gaps Y148C/R171S/L173F/T174R/R176Q/A177S/K178L/R179M/T181R/K182A/A238G/I253V/K255R/INS256[…]/T257A/E258S/DEL261-437/DEL441-478/M480V/S481M/L482A/I483M/K484R/K486H/A489L): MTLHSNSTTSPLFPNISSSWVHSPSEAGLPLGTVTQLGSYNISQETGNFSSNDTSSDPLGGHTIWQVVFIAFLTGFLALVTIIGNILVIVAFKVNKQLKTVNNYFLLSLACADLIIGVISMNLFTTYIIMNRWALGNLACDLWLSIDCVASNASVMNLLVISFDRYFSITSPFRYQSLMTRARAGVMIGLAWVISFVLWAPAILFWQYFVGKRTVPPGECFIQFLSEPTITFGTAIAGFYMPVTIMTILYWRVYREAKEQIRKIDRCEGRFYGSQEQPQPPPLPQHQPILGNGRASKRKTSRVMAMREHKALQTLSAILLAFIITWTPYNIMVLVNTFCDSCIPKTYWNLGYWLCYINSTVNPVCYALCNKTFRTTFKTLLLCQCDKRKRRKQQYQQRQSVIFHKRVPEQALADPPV
Procedure: Mice were anesthetized with sodium pentobarbital (Nembutal; 80 mg/kg, i.p.), and then placed into a stereotaxic device (KOPF). Eye cream was applied on both corneas to avoid dehydration. The skull above the targeted areas was thinned with a dental drill and carefully removed. Injections were conducted with a 10 μL syringe connected to a 33-Gauge needle (Neuros; Hamilton), using a microsyringe pump (Legato 130, KD Scientific). A total volume of 200 nL virus was injected into the SNr at a speed of 20 nL/min. The coordinates for the SNr were 3.4 mm posterior, 1.3 mm lateral, 4.8 mm ventral to the bregma.
Mice that were used in the behavioral experiments were then implanted with guide cannulas (KOPF) unilaterally aiming at the dorsomedial striatum (0.5 mm anterior, 1.5 mm lateral, 3.5 mm ventral to the bregma). The cannulas were fixed to the skull with dental cement. Stainless steel obturators were inserted into the guide cannulas and were replaced every other day to maintain the patency until infusions were made. Mice were allowed to recover from the surgery for at least 3 weeks before further studies.
To further optimize the system, an alternative chemogenetic effector that would potentially allow specific manipulation of the direct pathway compatible with systemic CNO infusions needed to be identified. […]. A different chemogenetic effector, rM3Ds, which uses cAMP as the second messenger and can effectively activate striatal MSNs, was used to avoid the activation of SNr neurons upon systemic CNO administration.
Together, these findings confirm that the approach we developed is a durable solution for selective activity modulation of D1-MSNs and the BG direct pathway.
Mice were individually handled for 10-20 seconds per day for at least 5 days to habituate them to the experimenter. The open field test was conducted in a test apparatus (50 cm×50 cm×50 cm) with an HD digital camera (Sony) positioned above the arena. On day one, mice were habituated to the apparatus for 10 minutes. On day 2, mice were administrated saline (0.1 mL i.p. or 200 nL intracranially [i.e.] through the guide cannulas). On day 3, mice were administrated with Clozapine-N-oxide (CNO, Hello Bio, HB1807; 0.3 mg/kg i.p. or 200 nL at 100 μM i.e.). All behavioral tests were conducted 30 minutes after injection. During the test, mice were allowed to freely explore the apparatus for 10 minutes. The behavioral data were analyzed with ANY-maze software (Stoelting Co.).

With `C[N+]1([O-])CCN(C2=Nc3cc(Cl)ccc3Nc3ccccc32)CC1` [CNO, Clozapine-N-oxide] the “percentage of contraversive and ipsiversive rotation (FIG. 11C), mean±SEM” value ([1]; saline 0.767±0.4296) was 0.8384±0.4152, the “speed of contraversive rotations (FIG. 11G), mean±SEM” value ([1]; saline 39.07±5.889) was 39.63±7.092 and the “speed of ipsiversive rotations (FIG. 11H), mean±SEM” value ([1]; saline 41.49±3.96) was 42.79±4.705. The “total distance (FIG. 11F), mean±SEM” value ([1]; saline 53.12±15.3) was 59.48±18.65, the “time spending in the higher portion of the observing cages (FIG. 11D), mean±SEM” value ([1]; saline 55.73±2.64) was 60.43±4.542 and the “immobile time (FIG. 11E), mean±SEM” value ([1]; saline 149.9±21.61) was 149.8±22.65. For the same molecule, the “contraversive rotations (FIG. 7A), mean±SEM” value (rM3Ds; CNO i.p., saline 45.95±4.972) was 80.05±5.168, the “contraversive rotations (FIG. 7A), mean±SEM” value (rM3Ds; CNO intracranial, saline 58.31±4.742) was 80.77±4.187 and the “c-Fos+ cells in the SNr” value (rM3Ds; AAV8R12-G88P7-rM3Ds-2A-EYFP, intraperitoneal and intracranial CNO) was “did not increase the number of c-Fos+ cells in the SNr”. The “rotation behavior (FIG. 7C), mean±SEM” value (rM3Ds; CNO i.p., saline 48.68±7.203) was 46.88±7.497 and the “rotation behavior (FIG. 7C), mean±SEM” value (rM3Ds; CNO intracranial, saline 41.11±12.73) was 34.55±7.536.

Reference: patent US20250382346A1, “NEURONAL PROMOTERS AND USES THEREOF” (priority 2023, published 2025)
